Structures are written as SMILES. *1 amine or outer side, *2 acyl side, *3 side chain or, on linkers, in order; H or OH if unused. Where a SMILES comes first, the peptide text is derived from it. Bridges are numbered along the chain shown (N, C = ends). [ ]: non-standard residue; d: D form. Phe(4-guanidino) = N=C(N)Nc1ccc(C[C@H](N)C(=O)O)cc1; X18 = CNC(=N)N(C)c1ccc(C[C@H](N[*:1])C(=O)[*:2])cc1; X19 = C[C@H](c1ccccc1)[C@@H](C(=O)[*:2])N(C)[*:1]; Ala(pyrimidin-5-yl) = N[C@@H](Cc1cncnc1)C(=O)O; NMe3Pal(6-Me) = CN[C@@H](Cc1ccc(C)nc1)C(=O)O; X36 = CN([C@@H](Cc1cnn(C)c1)C(=O)[*:2])[*:1]; NMe3Pal(5-F) = CN[C@@H](Cc1cncc(F)c1)C(=O)O; X7 = C[C@H](N[*:1])C12CC(C(=O)[*:2])(C1)C2; X20 = CN([C@@H](Cc1cnco1)C(=O)[*:2])[*:1]; NMeNva(5,5-F2) = CN[C@@H](CCC(F)F)C(=O)O; X11 = CC(C)(F)CC[C@H](N[*:1])C(=O)[*:2]; Nle(5,5-F2) = CC(F)(F)CC[C@H](N)C(=O)O; X35 = CN([C@@H](CCCF)C(=O)[*:2])[*:1]; Phe(2-F) = N[C@@H](Cc1ccccc1F)C(=O)O; NMe3Pal = CN[C@@H](Cc1cccnc1)C(=O)O; X1 = O=C(C12CC(CN[*:1])(C1)C2)[*:2]; X12 = CC(=O)NCCCN(CC(=O)[*:2])[*:1]; X17 = O=C([C@H](CCCCF)N[*:1])[*:2]; Aha = [N-]=[N+]=NCC[C@H](N)C(=O)O; NMeOrn(Me) = CNCCC[C@H](NC)C(=O)O; Ala(cPr) = N[C@@H](CC1CC1)C(=O)O; NMeF = CN[C@@H](Cc1ccccc1)C(=O)O; PhLac = O=C(O)[C@@H](O)Cc1ccccc1; 3Pal = N[C@@H](Cc1cccnc1)C(=O)O; Gly(N(CH2)3NH2) = NCCCNCC(=O)O; Ahp(2) = CCCCC[C@H](N)C(=O)O; Cba = N[C@@H](CC1CCC1)C(=O)O; NMeNle = CCCC[C@H](NC)C(=O)O; hLeu = CC(C)CC[C@H](N)C(=O)O; αMeC = C[C@](N)(CS)C(=O)O; NMeA = CN[C@@H](C)C(=O)O; Nle = CCCC[C@H](N)C(=O)O

phosphorylation levels of ERK1/2 in AsPC-1 (homozygous KRAS-G12D) cells, sequence (P01116 1-186 G12D): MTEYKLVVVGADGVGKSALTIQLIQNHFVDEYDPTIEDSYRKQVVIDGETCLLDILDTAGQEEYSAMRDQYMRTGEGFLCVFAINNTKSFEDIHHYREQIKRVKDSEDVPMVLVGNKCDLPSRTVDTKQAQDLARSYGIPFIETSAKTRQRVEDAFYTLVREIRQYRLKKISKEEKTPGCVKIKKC

The test addresses phosphorylation levels of ERK1/2 in AsPC-1 (homozygous KRAS-G12D) cells (Homo sapiens, UniProt P01116, G12D). Briefly: Cellular phospho-ERK assay in AsPC-1 cells (Alpha Screen), assay medium without fetal bovine serum.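 Also: signal taken as phospho-ERK over total ERK per well, both detected in one multiplex bead assay, EC50 from four-parameter logistic fit of dose-response curves.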 Format: cell-based. Particulars: phospho-ERK AlphaScreen, 18 h. In general terms: Bead proximity is the source of the signal in Alpha formats.
The EC50 is the concentration giving half of the maximal effect. Read a high EC50 as weaker potency. Molecule `CCCC[C@@H]1NC(=O)[C@H](Cc2cccnc2)NC(=O)[C@H](CCCNC(=N)N)NC(=O)[C@H](Cc2ccccc2)OC(=O)C23CC(CNC(=O)[C@H](Cc4ccccc4)N(C)C(=O)[C@H](CCCC)NC(=O)[C@H](Cc4ccccc4F)NC1=O)(C2)C3` [compound 212, cyclo(FLac-R-3Pal-Nle-Phe2F-Nle-NMeF-amBCP)] (cyclo([PhLac]R[3Pal][Nle][Phe(2-F)][Nle][NMeF][X1])) had an EC50 of 39.4 µM. This counts as double-digit micromolar. As to `CC(C)CC[C@@H]1NC(=O)[C@H](Cc2ccccc2F)NC(=O)[C@H](CC2CC2)NC(=O)[C@H](Cc2cncnc2)NC(=O)[C@H](CCC(F)F)N(C)C(=O)[C@H](Cc2ccccc2)OC(=O)C23CC(CNC(=O)[C@H](Cc4ccccc4)N(C)C1=O)(C2)C3` [compound 217, cyclo(FLac-NMeNvaF2-PyrimAla-cPrA-Phe2F-hL-NMeF-amBCP)] (cyclo([Ala(cPr)][Phe(2-F)][hLeu][NMeF][X1][PhLac][NMeNva(5,5-F2)][Ala(pyrimidin-5-yl)])), the EC50 came to 1.77 µM. Under `CCCC[C@@H]1NC(=O)[C@H](Cc2cccnc2)NC(=O)[C@H](CCCF)N(C)C(=O)[C@H](Cc2ccccc2)OC(=O)C23CC(CNC(=O)[C@H](Cc4cccnc4)N(C)C(=O)[C@H](CCCC)NC(=O)[C@H](Cc4ccccc4F)NC1=O)(C2)C3` [compound 239, cyclo(FLac-NMeNvaF-3Pal-Nle-Phe2F-Nle-NMe3Pal-amBCP)] (cyclo([3Pal][Nle][Phe(2-F)][Nle][NMe3Pal][X1][PhLac][X35])) stands 20.7 µM; under `CCCCC[C@@H]1NC(=O)[C@H](Cc2ccc(OC)cc2)NC(=O)[C@H](CC2CCC2)NC(=O)[C@H](Cc2ccc(NC(=N)N)cc2)NC(=O)CN(CCCN)C(=O)[C@H](Cc2ccccc2)NC(=O)CSC[C@@](C)(C(N)=O)NC(=O)[C@H](Cc2ccccc2)N(C)C1=O` [compound 388, cyclo(F-NPrNH2G-Phe4Gn-cBuA-TyrOMe-Ahp-NMeF-aMeCl-ClAc)] ({CH2CO}-F[Gly(N(CH2)3NH2)][Phe(4-guanidino)][Cba]Y(Me)[Ahp(2)][NMeF][αMeC]-NH2; thioether N-8), greater than 50.8 µM. For the molecule `CCCCC[C@@H]1NC(=O)[C@H](Cc2ccc(OC)cc2)NC(=O)[C@H](CC2CCC2)NC(=O)[C@H](Cc2ccc(NC(=N)N)cc2)NC(=O)CN(CCCNC(C)=O)C(=O)[C@H](Cc2ccccc2)NC(=O)CSC[C@@](C)(C(N)=O)NC(=O)[C@H](Cc2ccccc2)N(C)C1=O` [compound 387, cyclo(F-AcApG-Phe4Gn-cBuA-TyrOMe-Ahp-NMcF-aMeCl-ClAc)] ({CH2CO}-F[X12][Phe(4-guanidino)][Cba]Y(Me)[Ahp(2)][NMeF][αMeC]-NH2; thioether N-8), the EC50 was greater than 50.8 µM. Next, `CCCC[C@@H]1NC(=O)[C@H](Cc2ccccc2F)NC(=O)[C@H](CC2CCC2)NC(=O)[C@H](Cc2cncnc2)NC(=O)[C@H](C)N(C)C(=O)[C@H](Cc2ccccc2)OC(=O)C23CC(CNC(=O)[C@H](Cc4cccnc4)N(C)C1=O)(C2)C3` [compound 125, cyclo(FLac-NMeA-PyrimAla-cBuA-Phe2F-Nle-NMe3Pal-amBCP)] (cyclo([Cba][Phe(2-F)][Nle][NMe3Pal][X1][PhLac][NMeA][Ala(pyrimidin-5-yl)])): 45 µM; `CON=C1C[C@@H](Cc2ccccc2)C(=O)N(C)[C@@H](C)C(=O)N[C@@H](Cc2cncnc2)C(=O)N[C@@H](CC2CC2)C(=O)N[C@@H](Cc2ccccc2F)C(=O)N[C@@H](CCC(C)(F)F)C(=O)N(C)[C@@H](Cc2ccccc2)C(=O)NCC23CC1(C2)C3` (single isomer, unassigned) [compound 178, cyclo(CPhe-NMeA-PyrimAla-cPrA-Phe2F-Nle3F2-NMeF-MeOximamBCP)]: 0.128 µM. The molecule `C[C@H]1C(=O)N[C@@H](Cc2cncnc2)C(=O)N[C@@H](CC2CCC2)C(=O)N[C@@H](Cc2ccccc2F)C(=O)N[C@@H](CCC(C)(F)F)C(=O)N(C)[C@@H](Cc2ccccc2)C(=O)NCC23CC(C2)(C3)C(=O)O[C@@H](Cc2ccccc2)C(=O)N1C` [compound 224, cyclo(FLac-NMcA-PyrimAla-cBuA-Phe2F-Nle3F2-NMeF-amBCP)] (cyclo([Cba][Phe(2-F)][Nle(5,5-F2)][NMeF][X1][PhLac][NMeA][Ala(pyrimidin-5-yl)])) yielded a half-maximal effective concentration (EC50) of 0.542 µM.

Turning to `CCCCC[C@@H]1NC(=O)[C@H](Cc2ccc(OC)cc2)NC(=O)[C@H](CC2CCC2)NC(=O)[C@H](Cc2ccc(N(C)C(=N)NC)cc2)NC(=O)[C@H](CCCNC)N(C)C(=O)[C@H](Cc2ccccc2)NC(=O)CSC[C@@](C)(C(N)=O)NC(=O)[C@H](Cc2ccc(C)nc2)N(C)C1=O` [compound 395, cyclo(F-NMeOmMe-Phe4GnMeMe-cBuA-TyrOMe-Ahp-NMe3Pal4Me-aMeCl-ClAc)] ({CH2CO}-F[NMeOrn(Me)][X18][Cba]Y(Me)[Ahp(2)][NMe3Pal(6-Me)][αMeC]-NH2; thioether N-8), the EC50 is greater than 50.8 µM. For the molecule `CCCCC[C@@H]1NC(=O)[C@H](Cc2ccc(OC)cc2)NC(=O)[C@H](CC2CCC2)NC(=O)[C@H](Cc2cccnc2)NC(=O)[C@H](CCCNC(=N)N)NC(=O)[C@H](Cc2ccccc2)NC(=O)CSC[C@@](C)(C(N)=O)NC(=O)[C@H](Cc2cnco2)N(C)C1=O` [compound 379, cyclo(F-R-3Pal-cBuA-TyrOMe-Ahp-NMeAla5Oxa-aMeCl-ClAc)] ({CH2CO}-FR[3Pal][Cba]Y(Me)[Ahp(2)][X20][αMeC]-NH2; thioether N-8), the EC50 is greater than 50.8 µM.

Molecule `C[C@H](c1ccccc1)[C@H]1C(=O)NCC23CC(C2)(C3)C(=O)O[C@@H](Cc2ccccc2)C(=O)N(C)[C@@H](C)C(=O)N[C@@H](Cc2cncnc2)C(=O)N[C@@H](CC2CC2)C(=O)N[C@@H](Cc2ccccc2F)C(=O)N[C@@H](CCC(C)(C)F)C(=O)N1C` [compound 341, cyclo(FLac-NMeA-PyrimAla-cPrA-Phe2F-hL3F-NMeRbMeF-amBCP)] (cyclo([Ala(cPr)][Phe(2-F)][X11][X19][X1][PhLac][NMeA][Ala(pyrimidin-5-yl)])) came in with a half-maximal effective concentration (EC50) greater than 50.8 µM. With `CCCC[C@@H]1NC(=O)[C@H](Cc2cncnc2)NC(=O)[C@H](C)N(C)C(=O)[C@H](Cc2ccccc2)OC(=O)C23CC(CNC(=O)[C@H](Cc4cccnc4)N(C)C(=O)[C@H](CCCC)NC(=O)[C@H](Cc4ccccc4F)NC1=O)(C2)C3` [compound 237, cyclo(FLac-NMeA-PyrimAla-Nle-Phe2F-Nle-NMe3Pal-amBCP)] (cyclo([NMe3Pal][X1][PhLac][NMeA][Ala(pyrimidin-5-yl)][Nle][Phe(2-F)][Nle])), a half-maximal effect (EC50) was put at 13.4 µM. Under `CCCCC[C@@H]1NC(=O)[C@H](Cc2ccc(OC)cc2)NC(=O)[C@H](CC2CCC2)NC(=O)[C@H](Cc2cccnc2)NC(=O)[C@H](CCCNC)N(C)C(=O)[C@H](Cc2ccccc2)NC(=O)CSC[C@@](C)(C(N)=O)NC(=O)[C@H](Cc2ccc(C)nc2)N(C)C1=O` [compound 393, cyclo(F-NMeOrnMe-3Pal-cBuA-TyrOMe-Ahp-NMe3Pal4Me-aMeCl-ClAc)] ({CH2CO}-F[NMeOrn(Me)][3Pal][Cba]Y(Me)[Ahp(2)][NMe3Pal(6-Me)][αMeC]-NH2; thioether N-8) stands greater than 50.8 µM.

In turn, `CCCC[C@@H]1NC(=O)[C@H](Cc2cncnc2)NC(=O)[C@H](C)N(C)C(=O)[C@H](Cc2ccccc2)OC(=O)C23CC(C2)(C3)[C@H](C)NC(=O)[C@H](Cc2cccnc2)N(C)C(=O)[C@H](CCCC)NC(=O)[C@H](Cc2ccccc2F)NC1=O` [compound 121, cyclo(FLac-NMeA-PyrimAla-Nle-Phe2F-Nle-NMe3Pal-SMeamBCP)] (cyclo([NMe3Pal][X7][PhLac][NMeA][Ala(pyrimidin-5-yl)][Nle][Phe(2-F)][Nle])) yielded an EC50 of 23.4 µM. Under `CCCC[C@@H]1NC(=O)[C@H](Cc2ccc(C(F)(F)F)nc2)NC(=O)[C@H](CCCn2ccnc2)N(C)C(=O)[C@H](Cc2ccccc2)OC(=O)C23CC(CNC(=O)[C@H](Cc4ccccc4)N(C)C(=O)[C@H](CCCC)NC(=O)[C@H](Cc4ccccc4F)NC1=O)(C2)C3` (single isomer, unassigned) [compound 219, cyclo(FLac-NMeNvaImid-4CF33Pal-Nle-Phe2F-Nle-NMeF-amBCP)] stands greater than 50.8 µM; under `CCCC[C@@H]1NC(=O)[C@H](Cc2ccccc2F)NC(=O)[C@H](CCN=[N+]=[N-])NC(=O)[C@H](Cc2cccnc2)NC(=O)[C@H](CCCC)N(C)C(=O)[C@H](Cc2ccccc2)OC(=O)C23CC(CNC(=O)[C@H](Cc4cccnc4)N(C)C1=O)(C2)C3` [compound 243, cyclo(FLac-NMeNle-3Pal-DabN3-Phe2F-Nle-NMe3Pal-amBCP)] (cyclo([3Pal][Aha][Phe(2-F)][Nle][NMe3Pal][X1][PhLac][NMeNle])), 21.7 µM; under `CCCC[C@@H]1NC(=O)[C@H](Cc2cccnc2)NC(=O)[C@H](C)N(C)C(=O)[C@H](Cc2ccccc2)OC(=O)C23CC(CNC(=O)[C@H](Cc4cnn(C)c4)N(C)C(=O)[C@H](CCCC)NC(=O)[C@H](Cc4ccccc4F)NC1=O)(C2)C3` [compound 403, cyclo(FLac-NMeA-3Pal-Nle-Phe2F-Nle-NMeAla4PyzlMe-amBCP)] (cyclo([3Pal][Nle][Phe(2-F)][Nle][X36][X1][PhLac][NMeA])), 18.6 µM.

The molecule `CCCC[C@@H]1NC(=O)[C@H](Cc2ccccc2F)NC(=O)[C@H](CCCCF)NC(=O)[C@H](Cc2cncnc2)NC(=O)[C@H](C)N(C)C(=O)[C@H](Cc2ccccc2)OC(=O)C23CC(CNC(=O)[C@H](Cc4ccccc4)N(C)C1=O)(C2)C3` [compound 130, cyclo(FLac-NMeA-PyrimAla-NleF-Phe2F-Nle-NMeF-amBCP)] (cyclo([NMeA][Ala(pyrimidin-5-yl)][X17][Phe(2-F)][Nle][NMeF][X1][PhLac])) had a concentration giving a half-maximal response (EC50) of 2.03 µM. In turn, `CC(C)CC[C@@H]1NC(=O)[C@H](Cc2ccccc2F)NC(=O)[C@H](CC2CC2)NC(=O)[C@H](Cc2cncnc2)NC(=O)[C@H](C)N(C)C(=O)[C@H](Cc2ccccc2)OC(=O)C23CC(CNC(=O)[C@H](Cc4cncc(F)c4)N(C)C1=O)(C2)C3` [compound 282, cyclo(FLac-NMeA-PyrimAla-cPrA-Phe2F-hL-NMe3Pal5F-amBCP)] (cyclo([Ala(cPr)][Phe(2-F)][hLeu][NMe3Pal(5-F)][X1][PhLac][NMeA][Ala(pyrimidin-5-yl)])) showed a concentration for a half-maximal effect (EC50) of 2.49 µM.

(Values after US20260001914A1, “MACROCYCLIC PEPTIDES TARGETING KRAS” (Merck Sharp & Dohme LLC, priority 2022, published 2026).)
